# Experiments:
# foxtail, giant = test: Test A preemergence; format: in vivo, Setaria faberii; conditions: preemergence
# Procedure, shortened: (§1)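 Seeds were sown in a loam soil–sand blend and given a directed soil spray preemergence; postemergence plants at 2–10 cm, one- to two-leaf stage, were sprayed with compound in non-phytotoxic solvent with surfactant. After about 10 days in a greenhouse, injury was visually rated against untreated controls (0 = no effect, 100 = complete control).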
# barnyardgrass [1] = test: Test A postemergence; format: in vivo, Echinochloa crus-galli
# Procedure, shortened: as §1
# corn = test: Test A postemergence; format: in vivo, Zea mays
# Procedure, shortened: as §1
# galium = test: Test C preemergence; format: in vivo, Galium aparine; conditions: for Plant response rating (scale of 0 to 100), Galium: Preemergence, 250 g ai/ha
# Procedure, shortened: (§2)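 Seeds sown in loam–sand blend and treated preemergence with test chemicals in non-phytotoxic solvent with surfactant; postemergence plants in peat-based medium, treated at 2–18 cm (1- to 4-leaf stage). Greenhouse 13 to 15 days, then visual rating versus controls, 0 (no effect) to 100 (complete control).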
# barnyardgrass [2] = test: Test C preemergence; format: in vivo, Echinochloa crus-galli; conditions: for Plant response rating (scale of 0 to 100), Barnyardgrass: Preemergence, 250 g ai/ha
# Source text: (§3) Seeds of plant species selected from blackgrass (Alopecurus myosuroides), ryegrass, Italian (Italian ryegrass, Lolium multiflorum), wheat (winter wheat, Triticum aestivum), galium (catchweed bedstraw, Galium aparine), corn (Zea mays), crabgrass, large (large crabgrass, Digitaria sanguinalis), foxtail, giant (giant foxtail, Setaria faberii), johnsongrass (Sorghum halepense), lambsquarters (Chenopodium album), morningglory (Ipomoea coccinea), nutsedge, yellow (yellow nutsedge, Cyperus esculentus), pigweed (redroot pigweed, Amaranthus retroflexus), ragweed (common ragweed, Ambrosia elation), soybean (Glycine max), barnyardgrass (Echinochloa crus-galli), oilseed rape (Brassica napus), waterhemp (common waterhemp, Amaranthus rudis), oat, wild (wild oat, Avena fatua), kochia (Kochia scoparia), Surinam grass (Brachiaria decumbens), foxtail, green (green foxtail, Setaria viridis), goosegrass (Eleusine indica), bromegrass, downy (downy bromegrass, Bromus tectorum), nightshade (eastern black nightshade, Solanum ptycanthum), cocklebur (common cocklebur, Xanthium strumarium), cupgrass, woolly (woolly cupgrass, Eriochloa villosa), bermudagrass (Cynodon dactylon), sunflower, (common oilseed sunflower, Helianthus annuus), Russian thistle (Salsola kali), and velvetleaf (Abutilon theophrasti) were planted into a blend of loam soil and sand and treated preemergence with test chemicals formulated in a non-phytotoxic solvent mixture which included a surfactant.
# (§4) At the same time, plants selected from these crop and weed species and also chickweed (common chickweed, Stellaria media), canarygrass (littleseed canarygrass, Phalaris minor), and deadnettle (henbit deadnettle, Lamium amplexicaule), were planted in pots containing Redi-Earth® planting medium (Scotts Company, 14111 Scottslawn Road, Marysville, Ohio 43041) comprising spaghnum peat moss, vermiculite, wetting agent and starter nutrients and treated with postemergence applications of test chemicals formulated in the same manner. Plants ranged in height from 2 to 18 cm (1- to 4-leaf stage) for postemergence treatments. Treated plants and controls were maintained in a greenhouse for 13 to 15 days, after which time all species were compared to controls and visually evaluated. Plant response ratings, summarized in Table C, are based on a scale of 0 to 100 where 0 is no effect and 100 is complete control. A dash (-) response means no test result.
# lambsquarters = test: Test C postemergence; format: in vivo, Chenopodium album; conditions: for Plant response rating (scale of 0 to 100 where 0 is no effect and 100 is complete control), Lambsquarters: Postemergence, 31 g ai/ha, visually evaluated after 13 to 15 days; for Lambsquarters plant response rating / Plant response rating, Lambsquarters: postemergence; for Lambsquarters plant response rating: 62 g ai/ha, scale 0 to 100
# Procedure, shortened: as §2
# morningglory = test: Test C postemergence; format: in vivo, Ipomoea coccinea; conditions: for Plant response rating (scale of 0 to 100 where 0 is no effect and 100 is complete control), Morningglory: Postemergence, 31 g ai/ha, visually evaluated after 13 to 15 days; for Morningglory plant response rating / Plant response rating, Morningglory: postemergence; for Morningglory plant response rating: 62 g ai/ha, scale 0 to 100
# Procedure, shortened: as §2
# pigweed = test: Test C postemergence; format: in vivo, Amaranthus retroflexus; conditions: for Plant response rating (scale of 0 to 100 where 0 is no effect and 100 is complete control), Pigweed: Postemergence, 31 g ai/ha, visually evaluated after 13 to 15 days; for Pigweed plant response rating / Plant response rating, Pigweed: postemergence; for Pigweed plant response rating: 62 g ai/ha, scale 0 to 100
# Procedure, shortened: as §2
# barnyardgrass [3] = test: Test C postemergence; format: in vivo, Echinochloa crus-galli; conditions: for Plant response rating (scale of 0 to 100 where 0 is no effect and 100 is complete control), Barnyardgrass: Postemergence, 31 g ai/ha, visually evaluated after 13 to 15 days; for Barnyardgrass plant response rating / Plant response rating, Barnyardgrass: postemergence; for Barnyardgrass plant response rating: 62 g ai/ha, scale 0 to 100
# Source text: as §3, §4
# oilseed rape = test: Test C postemergence; format: in vivo, Brassica napus; conditions: for Plant response rating (scale of 0 to 100 where 0 is no effect and 100 is complete control), Oilseed Rape: Postemergence, 31 g ai/ha, visually evaluated after 13 to 15 days; for Oilseed Rape plant response rating / Plant response rating, Oilseed Rape: postemergence; for Oilseed Rape plant response rating: 62 g ai/ha, scale 0 to 100
# Source text: as §3, §4
# oat, wild = test: Test C postemergence; format: in vivo, Avena fatua; conditions: for Plant response rating (scale of 0 to 100 where 0 is no effect and 100 is complete control), Oat, Wild: Postemergence, 31 g ai/ha, visually evaluated after 13 to 15 days; for Oat, Wild plant response rating / Plant response rating, Oat, Wild: postemergence; for Oat, Wild plant response rating: 62 g ai/ha, scale 0 to 100
# Procedure, shortened: as §2
# velvetleaf = test: Test C postemergence; format: in vivo, Abutilon theophrasti; conditions: for Plant response rating (scale of 0 to 100 where 0 is no effect and 100 is complete control), Velvetleaf: Postemergence, 31 g ai/ha, visually evaluated after 13 to 15 days; for Velvetleaf plant response rating / Plant response rating, Velvetleaf: postemergence; for Velvetleaf plant response rating: 62 g ai/ha, scale 0 to 100
# Procedure, shortened: as §2
# chickweed = test: Test C postemergence; format: in vivo, Stellaria media; conditions: for Plant response rating (scale of 0 to 100 where 0 is no effect and 100 is complete control), Chickweed: Postemergence, 31 g ai/ha, visually evaluated after 13 to 15 days; for Chickweed plant response rating / Plant response rating, Chickweed: postemergence; for Chickweed plant response rating: 62 g ai/ha, scale 0 to 100
# Procedure, shortened: as §2
# [4] = 125 g ai/ha, visual injury, 0 to 100 scale, approx. 10 days
# [5] = 500 g ai/ha, visual injury after approx. 10 days, 0 to 100 scale (0 no effect, 100 complete control)
# [6] = Postemergence, 500 g ai/ha, 0 to 100 scale (0 no effect, 100 complete control)
# [7] = postemergence, 125 g ai/ha, about 10 days, visual rating on 0 to 100 scale (0 no effect, 100 complete control)
# [8] = preemergence, 31 g ai/ha, visual rating, scale 0 to 100 (0 no effect, 100 complete control), 13 to 15 days
# [9] = preemergence, 62 g ai/ha, scale 0 to 100 (0 no effect, 100 complete control), 13 to 15 days
# [10] = preemergence, 125 g ai/ha, scale 0 to 100, 0 is no effect, 100 is complete control
# [11] = preemergence, 31 g ai/ha, scale 0 to 100 (0 no effect, 100 complete control), 13 to 15 days
# [12] = 250 g ai/ha, scale 0 to 100 (0 no effect, 100 complete control)
# [13] = 125 g ai/ha, scale 0 to 100, 0 no effect, 100 complete control
# [14] = preemergence, 125 g ai/ha, 13 to 15 days, scale 0 to 100, 0 = no effect, 100 = complete control
structure (smiles),measurement,setting,value
CCc1cc(C(=O)NOC(C)C)nn1Cc1ccnc(OC(F)F)c1 [Compound 126],"Foxtail, Giant plant response rating","foxtail, giant; [4]",100
same,"Foxtail, Giant plant response rating","foxtail, giant; [5]",100
same,Barnyardgrass plant response rating,barnyardgrass [1]; [6],100
same,Barnyardgrass plant response rating,barnyardgrass [1]; [7],90
same,Corn plant response rating,corn; [6],90
same,Corn plant response rating,corn; [7],90
same,"Plant response rating (scale of 0 to 100), Galium",galium,100
same,Galium plant response rating,galium; [8],85
same,Galium plant response rating,galium; [9],98
same,Galium plant response rating,galium; [10],100
same,"Plant response rating (scale of 0 to 100), Barnyardgrass",barnyardgrass [2],100
same,Barnyardgrass plant response rating,barnyardgrass [2]; [11],75
same,Barnyardgrass plant response rating,barnyardgrass [2]; [9],100
same,Barnyardgrass plant response rating,barnyardgrass [2]; [10],100
same,"Plant response rating (scale of 0 to 100 where 0 is no effect and 100 is complete control), Lambsquarters",lambsquarters,35
same,Lambsquarters plant response rating,lambsquarters,70
same,"Plant response rating, Lambsquarters",lambsquarters; [12],90
same,"Plant response rating, Lambsquarters",lambsquarters; [13],80
same,"Plant response rating (scale of 0 to 100 where 0 is no effect and 100 is complete control), Morningglory",morningglory,40
same,Morningglory plant response rating,morningglory,60
same,"Plant response rating, Morningglory",morningglory; [12],80
same,"Plant response rating, Morningglory",morningglory; [13],80
same,"Plant response rating (scale of 0 to 100 where 0 is no effect and 100 is complete control), Pigweed",pigweed,25
same,Pigweed plant response rating,pigweed,50
same,"Plant response rating, Pigweed",pigweed; [12],65
same,"Plant response rating, Pigweed",pigweed; [13],40
same,"Plant response rating (scale of 0 to 100 where 0 is no effect and 100 is complete control), Barnyardgrass",barnyardgrass [3],5
same,Barnyardgrass plant response rating,barnyardgrass [3],5
same,"Plant response rating, Barnyardgrass",barnyardgrass [3]; [12],40
same,"Plant response rating, Barnyardgrass",barnyardgrass [3]; [13],10
same,"Plant response rating (scale of 0 to 100 where 0 is no effect and 100 is complete control), Oilseed Rape",oilseed rape,45
same,Oilseed Rape plant response rating,oilseed rape,50
same,"Plant response rating, Oilseed Rape",oilseed rape; [12],70
same,"Plant response rating, Oilseed Rape",oilseed rape; [13],60
same,"Plant response rating (scale of 0 to 100 where 0 is no effect and 100 is complete control), Oat, Wild","oat, wild",35
same,"Oat, Wild plant response rating","oat, wild",15
same,"Plant response rating, Oat, Wild","oat, wild; [12]",50
same,"Plant response rating, Oat, Wild","oat, wild; [13]",20
same,"Plant response rating (scale of 0 to 100 where 0 is no effect and 100 is complete control), Velvetleaf",velvetleaf,30
same,Velvetleaf plant response rating,velvetleaf,25
same,"Plant response rating, Velvetleaf",velvetleaf; [12],70
same,"Plant response rating, Velvetleaf",velvetleaf; [13],35
same,"Plant response rating (scale of 0 to 100 where 0 is no effect and 100 is complete control), Chickweed",chickweed,60
same,Chickweed plant response rating,chickweed,70
same,"Plant response rating, Chickweed",chickweed; [12],85
same,"Plant response rating, Chickweed",chickweed; [13],80
CCCc1cc(C(=O)NCC(F)(F)F)nn1Cc1ccnc(OC(F)F)c1 [Compound 127],"Foxtail, Giant plant response rating","foxtail, giant; [4]",90
same,"Foxtail, Giant plant response rating","foxtail, giant; [5]",100
same,Barnyardgrass plant response rating,barnyardgrass [1]; [6],90
same,Barnyardgrass plant response rating,barnyardgrass [1]; [7],90
same,Corn plant response rating,corn; [6],90
same,Corn plant response rating,corn; [7],90
same,"Plant response rating (scale of 0 to 100), Galium",galium,100
same,Galium plant response rating,galium; [8],80
same,Galium plant response rating,galium; [9],100
same,"Plant response rating, Galium",galium; [14],100
same,"Plant response rating (scale of 0 to 100), Barnyardgrass",barnyardgrass [2],95
same,Barnyardgrass plant response rating,barnyardgrass [2]; [11],45
same,Barnyardgrass plant response rating,barnyardgrass [2]; [9],60
same,"Plant response rating, Barnyardgrass",barnyardgrass [2]; [14],95
same,"Plant response rating (scale of 0 to 100 where 0 is no effect and 100 is complete control), Lambsquarters",lambsquarters,65
same,Lambsquarters plant response rating,lambsquarters,80
same,"Plant response rating, Lambsquarters",lambsquarters; [12],85
same,"Plant response rating, Lambsquarters",lambsquarters; [13],85
same,"Plant response rating (scale of 0 to 100 where 0 is no effect and 100 is complete control), Morningglory",morningglory,65
same,Morningglory plant response rating,morningglory,70
same,"Plant response rating, Morningglory",morningglory; [12],85
same,"Plant response rating, Morningglory",morningglory; [13],60
same,"Plant response rating (scale of 0 to 100 where 0 is no effect and 100 is complete control), Pigweed",pigweed,35
same,Pigweed plant response rating,pigweed,70
same,"Plant response rating, Pigweed",pigweed; [12],85
same,"Plant response rating, Pigweed",pigweed; [13],75
same,"Plant response rating (scale of 0 to 100 where 0 is no effect and 100 is complete control), Barnyardgrass",barnyardgrass [3],5
same,Barnyardgrass plant response rating,barnyardgrass [3],5
same,"Plant response rating, Barnyardgrass",barnyardgrass [3]; [12],15
same,"Plant response rating, Barnyardgrass",barnyardgrass [3]; [13],10
same,"Plant response rating (scale of 0 to 100 where 0 is no effect and 100 is complete control), Oilseed Rape",oilseed rape,65
same,Oilseed Rape plant response rating,oilseed rape,70
same,"Plant response rating, Oilseed Rape",oilseed rape; [12],85
same,"Plant response rating, Oilseed Rape",oilseed rape; [13],80
same,"Plant response rating (scale of 0 to 100 where 0 is no effect and 100 is complete control), Oat, Wild","oat, wild",5
same,"Oat, Wild plant response rating","oat, wild",5
same,"Plant response rating, Oat, Wild","oat, wild; [12]",35
same,"Plant response rating, Oat, Wild","oat, wild; [13]",5
same,"Plant response rating (scale of 0 to 100 where 0 is no effect and 100 is complete control), Velvetleaf",velvetleaf,10
same,Velvetleaf plant response rating,velvetleaf,15
same,"Plant response rating, Velvetleaf",velvetleaf; [12],70
same,"Plant response rating, Velvetleaf",velvetleaf; [13],45
same,"Plant response rating (scale of 0 to 100 where 0 is no effect and 100 is complete control), Chickweed",chickweed,75
same,Chickweed plant response rating,chickweed,80
same,"Plant response rating, Chickweed",chickweed; [12],80
same,"Plant response rating, Chickweed",chickweed; [13],80

# Source: patent publication US20150105252A1, “SUBSTITUTED PYRAZOLES AS HERBICIDES” (E I DU PONT DE NEMOURS AND COMPANY, priority 2013, published 2015)
